Each structure is given as a SMILES string.

From patent publication US6277851A, “Bicyclic amino-pyrazinone compounds” (priority 1999, dated 2001) come the findings set out here.

The subject of assay [1] is human plasma. Kind of assay: Anti-coagulant activity, thrombin time (TT) in human plasma. The class given is biochemical. The settings on record: 37° C. As for the experimental part:
(§1) In order to evaluate the anti-coagulant activity of the compounds of the invention, the thrombin time (TT) and activated cephalin time (ACT) were determined from human plasma samples. An ST4 coagulometer (Diagnostica Stago, France) was used. Plasma, deficient in platelets and lyophilised (Stago), is taken up in distilled water. The TT is obtained using the reagent Prest Thrombin and the ACT using the reagent PTT Automate […]. […] Under those conditions, the TT is of the order of 18 seconds and the ACT is of the order of 12 seconds. The activity of an antagonist is evaluated by its capacity to prolong the TT and the ACT relative to the control. The effect of the inhibitors is expressed by the concentration in μM that doubles the coagulation time (Ctt2).

In assay [2] the test system is human plasma. The assay can be described thus: Anti-coagulant activity, activated cephalin time (ACT) in human plasma. Format: biochemical. Particulars: 37° C. The method, then:
as §1

In another assay the target is T1, human thrombin (Homo sapiens, UniProt P00734).
T1 construct: purchased Sigma
Kind of assay: Inhibition of human thrombin (fibrinogen substrate, fibrin formation). Format: biochemical. Particulars: human thrombin 0.7 nM, 10 min preincubation, 20° C., pH 7.4. As for the experimental part:
Inhibitors, enzymes and substrates are diluted in the same buffer ([…] phosphate buffer, pH 7.4, containing 0.12 M sodium chloride and 0.05% of bovine serum albumin) and then distributed on a polystyrene microtitre plate in a volume of 50 μl. The fibrin formed by the thrombin or by the paranitroanilide released by the action of the serine protease is measured using a spectrophotometer at 405 nm after from 15 to 30 minutes' reaction at 20° C. Table 2 below gives in nM the concentration of the compounds that inhibits 50% of the enzymatic activity (IC50) of the thrombin compared with the control without product.

The target in another assay is T2, human plasmin (Homo sapiens, UniProt P00747).
T2 construct: purchased Stago
The assay can be described thus: Inhibition of fibrinolysis serine proteases: plasmin. Format: biochemical. The settings on record: human plasmin 2 nM, substrate S 2403 0.50 mM, 20° C., pH 7.4. The method, then:
(§2) Inhibitors, enzymes and substrates are diluted in the same buffer ([…] phosphate buffer, pH 7.4, containing 0.12 M sodium chloride and 0.05% of bovine serum albumin) and then distributed on a polystyrene microtitre plate in a volume of 50 μl. The fibrin formed by the thrombin or by the paranitroanilide released by the action of the serine protease is measured using a spectrophotometer at 405 nm after from 15 to 30 minutes' reaction at 20° C. Table 3 below gives in nM the concentration of the compounds that inhibits 50% of the enzymatic activity (IC50) of the fibrinolysis proteases.

In the next assay the target is t-PA (Homo sapiens, UniProt P00750). The assay can be described thus: Inhibition of fibrinolysis serine proteases: t-PA. Particulars: fibrinolysis protease. The class given is biochemical. The method, then:
as §2

Another assay has as its target uPA (Homo sapiens, UniProt P00749). Kind of assay: Inhibition of fibrinolysis serine proteases: uPA. The class given is biochemical. The settings on record: fibrinolysis protease. The method, then:
as §2

For assay [3], the system named is dog plasma. The assay can be described thus: Anti-coagulant activity after administration per os to dogs, TT. The class given is in vivo. The settings on record: p.o., 10 mg/kg. The method, then: (§3) […] The coagulation times (TT, ACT) are determined from dog plasma samples 10 minutes before and 30 min, 1 hour, 2 hours, 4 hours and 6 hours after administration of the products.

Assay [4] relates to dog plasma. Kind of assay: Anti-coagulant activity after administration per os to dogs, ACT. The class given is in vivo. Particulars: p.o., 10 mg/kg. The method, then: as §3

Sequence of t-PA (P00750 36-562): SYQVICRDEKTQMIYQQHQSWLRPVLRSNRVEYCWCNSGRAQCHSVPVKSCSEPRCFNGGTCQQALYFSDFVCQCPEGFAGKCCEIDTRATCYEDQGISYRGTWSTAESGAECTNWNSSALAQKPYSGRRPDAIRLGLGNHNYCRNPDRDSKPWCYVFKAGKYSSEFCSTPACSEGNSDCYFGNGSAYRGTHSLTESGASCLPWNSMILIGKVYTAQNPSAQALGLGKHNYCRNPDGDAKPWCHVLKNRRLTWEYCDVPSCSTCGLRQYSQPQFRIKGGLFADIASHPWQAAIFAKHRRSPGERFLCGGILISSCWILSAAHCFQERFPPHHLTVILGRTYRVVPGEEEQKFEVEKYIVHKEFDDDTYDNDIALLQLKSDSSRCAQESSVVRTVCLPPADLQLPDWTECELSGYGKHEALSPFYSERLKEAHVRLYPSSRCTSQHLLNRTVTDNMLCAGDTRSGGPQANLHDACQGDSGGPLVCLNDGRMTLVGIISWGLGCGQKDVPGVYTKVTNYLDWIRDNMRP
T2 sequence (P00747 581-810 limits assumed): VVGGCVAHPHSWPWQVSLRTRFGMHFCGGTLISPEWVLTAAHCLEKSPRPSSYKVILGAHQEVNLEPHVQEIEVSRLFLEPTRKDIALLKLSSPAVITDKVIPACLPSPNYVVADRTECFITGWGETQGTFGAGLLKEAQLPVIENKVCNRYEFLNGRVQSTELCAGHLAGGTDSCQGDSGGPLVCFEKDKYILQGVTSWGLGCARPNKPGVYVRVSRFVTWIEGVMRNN

A word on the IC50: it is the point on the concentration scale where inhibition reaches its midpoint. With `COc1ccc(C(CNc2ncc3n(c2=O)C(C(=O)NCc2ccc(N)nc2C)CC3)c2ccc(OC)cc2)cc1.Cl.Cl` (centres unmarked) [Example 98, N-[(6-Amino-2-methyl-3-pyridyl)-methyl]-3-[2,2-bis-(4-methoxy-phenyl)-ethylamino]-4-oxo-4,6,7,8-tetrahydropyrrolo[1,2-a]pyrazine-6-carboxamide dihydrochloride], the “TT Ctt2 (concentration that doubles the coagulation time)” value in the assay with human plasma [1] was determined as 0.33 µM. Further, the “ACT Ctt2 (concentration that doubles the coagulation time)” value in the assay with human plasma [2] is 3.54 µM. The IC50 on human thrombin was 0.008 µM; against human plasmin, above 33 µM; at t-PA, above 33 µM; at uPA it was above 33 µM. Also, the “Maximum TT increase (number of times by which the initial time has been increased)” value in the assay on dog plasma [3] was 6.1 times. Besides, the “Maximum ACT increase (number of times by which the initial time has been increased)” value in the assay on dog plasma [4] stood at 1.4 times.
